Measurements taken from patent publication US10202347B2, “Compound, production method therefor, and use of said compound” (MICROBIAL CHEMISTRY RESEARCH FOUNDATION, priority 2013, dated 2019).
In brackets after ≈: the same amount, converted by molar mass. Read-outs that look alike come from different tables or passages of the source.

Tests used:
[1] = test system: human stomach cancer cells MKN-74; assay: Cell proliferation test, monoculture test (GFP fluorescence); type: cell-based; conditions: monoculture test, MKN-74 alone, cell proliferation rate, average of duplicate, read-out: Mono IC50
Description: (§1) Human stomach cancer cells MKN-74 (Riken Cell Bank) were cultured at 37° C. and 5% CO2 in DMEM supplemented with 10% FBS (product of GIBCO Co.), 100 units/mL penicillin G (product of Invitrogen Co.), and 100 μg/mL streptomycin (product of Invitrogen Co.).
(§2) The above cancer cells were allowed to undergo gene transfer of Green fluorescence protein (GFP) expression vector, pEGFP-C1 (product of BD Biosciences Co.) using the Lipofectamine reagent (product of Invitrogen Co.), to thereby clone cells stably expressing GFP.
(§3) Only DMEM containing 1% dialyzed serum, 5 μg/mL insulin, 5 μg/mL transferrine (product of Wako Pure Chemical Industries Co.), and 1.4 μM hydrocortisone (product of Sigma Co.) was placed in a 96-well plate at 0.1 mL/well, and respective evaluation samples (the compounds expressed by Structural Formulas (1) to (13)) were added thereto at respective concentrations, followed by maintaining at 37° C. and 5% CO2 for 2 days.
Next, the above human stomach cancer cells MKN-74 were dispersed in DMEM at 5×10^5 cells/mL, and were placed in the above plate at 10 μL/well, followed by further coculturing at 37° C. and 5% CO2 for 3 days.
(§4) Measurement of cell proliferation rates in the above coculture test and monoculture test was performed in the following manner.
(§5) The medium was removed from the wells of the above plate, and a cytolysis liquid (10 mM Tris-HCl [pH 7.4], 150 mM NaCl, 0.9 mM CaCl2, and 1% Triton X-100) was added thereto at 0.1 mL/well to lyse the cells. The fluorescence intensity of GFP was measured at an excitation wavelength of 485 nm and a fluorescence wavelength of 538 nm, and the cell proliferation rates were calculated from the following formula. Cell proliferation rate (%)=(Fluorescence intensity in the presence of the evaluation sample/Fluorescence intensity in the absence of the evaluation sample)×100

[2] = test system: human stomach cancer cells MKN-74 cocultured with normal stromal cells derived from the human stomach, Hs738; assay: Cell proliferation test, coculture test with normal stromal cells Hs738 (GFP fluorescence); type: cell-based; conditions: coculture test, MKN-74 with stromal cells Hs738, cell proliferation rate, average of duplicate, read-out: Cocul IC50
Description: as §1, §2
Normal stromal cells derived from the human stomach, Hs738 ((CRL-7869), ATCC) were cultured at 37° C. and 5% CO2 in DMEM supplemented with 10% FBS, 100 units/mL penicillin G (product of Invitrogen Co.), 100 μg/mL streptomycin (product of Invitrogen Co.), 5 μg/mL insulin, 5 μg/mL transferrin (product of Wako Pure Chemical Industries Co.), 1.4 μM hydrocortisone (product of Sigma Co.), and […] basic-FGF (product of Pepro Tech Co.).
as §3, with “The above normal stromal cells derived from the human stomach, Hs738 were dispersed at 5×10^4 cells/mL in” for “Only”, “Co.), and were” for “Co.) was”, “mL/well. Respective” for “mL/well, and respective”, “culturing” for “maintaining”
Next, the above human stomach cancer cells MKN-74 were dispersed in DMEM at 5×10^5 cells/mL, and were placed at 10 μL/well in the plate in which the above normal stromal cells derived from the human stomach, Hs738 had been cultured, followed by further coculturing at 37° C. and 5% CO2 for 3 days.
as §4, §5

[3] = Acute toxicity test (maximum tolerated dose); conditions: female, ICR, mouse, in vivo, iv
Excerpt: ICR mice (female, 4 weeks old, product of Charles River Co.) were bred under the SPF conditions.
One half of the administration dose at which the mice were recognized to be dead or have serious toxicity for the observation period of 2 weeks was defined as the maximum tolerated dose (MTD) in the present experiment.

[4] = test system: Helicobacter pylori JCM12093 strain; assay: Measurement of MIC for Helicobacter pylori JCM12093; type: cell-based; conditions: Helicobacter pylori, JCM12093; HP medium, 144 hours, 37° C., microaerobic; read-out: MIC Helicobacter pylori JCM 12093
Description: (§6) Each of the above compounds was measured for minimum inhibitory concentration (MIC) for Helicobacter pylori.
(§7) Helicobacter pylori JCM12093 strain and H. pylori JCM12095 strain each were statically cultured in a HP medium (brain heart infusion broth (product of Becton, Dickinson Co.) supplemented with 10% fetal bovine serum (product of Life Technologies Co.)) for 144 hours at 37° C. under microaerobic culture conditions (microaerobic conditions (N2:O2:CO2=85:5:10)).
(§8) After completion of the culturing, the culture was suspended with the HP medium and diluted so that Helicobacter pylori was 2×10^6 CFU/mL to 9×10^6 CFU/mL.
(§9) Each of the test samples (each of the above compounds, clarithromycin, and ampicillin) was prepared with the HP medium to have a concentration of 256 mg/L. From this concentration, the test sample was 2-fold diluted serially in 15 steps to 0.0078 mg/L.
(§10) The above-diluted culture was added at 50 μL/well to 50 μL/well of the HP medium containing each of the test samples at the above concentrations, and was statically cultured for 144 hours at 37° C. under microaerobic culture conditions (microaerobic conditions (N2:O2:CO2=85:5:10)). After completion of the culturing, the presence or absence of proliferation of each bacterium was visually determined based on turbidity, and the MIC for each bacterial strain was obtained.

[5] = test system: Haemophilus influenza T-196 strain; assay: Measurement of MIC for Haemophilus influenza T-196; type: cell-based; conditions: HI medium, 18 hours, 37° C., 5% carbon dioxide; read-out: MIC Haemophilus influenzae T-196
Description: (§11) Each of the above compounds was measured for minimum inhibitory concentration (MIC) for Haemophilus influenza.
(§12) Haemophilus influenza T-196 strain and H. influenza ARD476 strain each were statically cultured in a HI medium (Muller Hinton medium (product of Becton, Dickinson Co.) supplemented with 5% Fildes enrichment (product of Becton, Dickinson Co.)) at 37° C. overnight under aerobic conditions containing 5% carbon dioxide gas.
(§13) After completion of the culturing, the culture was suspended with the HI medium and diluted so that each Haemophilus influenza strain was 2×10^6 CFU/mL to 9×10^6 CFU/mL.
(§14) Each of the test samples (each of the above compounds, clarithromycin, and ampicillin) was prepared with the HI medium to have a concentration of 256 mg/L. From this concentration, the test sample was 2-fold diluted serially in 11 steps to 0.125 mg/L.
(§15) The above-diluted culture was added at 50 μL/well to 50 μL/well of the HI medium containing each of the test samples at the above concentrations, and was statically cultured for 18 hours at 37° C. under aerobic conditions containing 5% carbon dioxide gas.
(§16) After completion of the culturing, the presence or absence of proliferation of each bacterium was visually determined based on turbidity, and the MIC for each bacterial strain was obtained.

[6] = test system: Escherichia coli K-12 strain; assay: Measurement of MIC for Escherichia coli; type: cell-based; conditions: K12STRAIN, nutrient broth medium, 37° C. overnight, read-out: MIC Escherichia coli K-12
Description: (§17) Each of the above compounds was measured for minimum inhibitory concentration (MIC) for Staphylococcus aureus and Escherichia coli.
(§18) Staphylococcus aureus FDA209P strain and Escherichia coli K-12 strain each were cultured under shaking in a nutrient broth medium (polypeptone (product of NIHON PHARMACEUTICAL Co.) 1%, fish extract for bacteria (product of KYOKUTO PHARMACEUTICAL INDUSTRIAL Co.) 1%, and sodium chloride 0.2%) at 37° C. overnight.
(§19) After completion of the culturing, the culture was diluted with the nutrient broth medium so that the bacteria were 2×10^6 CFU/mL to 9×10^6 CFU/mL.
(§20) Each of the test samples (each of the above compounds, clarithromycin, and ampicillin) was prepared with the nutrient broth medium to have a concentration of 256 mg/L. From this concentration, the test sample was 2-fold diluted serially in 11 steps to 0.125 mg/L.
as §10, with “nutrient broth” for “HP”, “cultured” for “cultured for 144 hours”, “overnight.” for “under microaerobic culture conditions (microaerobic conditions (N2:O2:CO2=85:5:10)).”

[7] = test system: Enterococcus faecalis JCM5803 strain; assay: Measurement of MIC for Enterococcus faecalis; type: cell-based; conditions: JCM5803, heart infusion broth medium, 37° C., 18 hours, read-out: MIC Enterococcus faecalis JCM5803
Description: Each of the above compounds was measured for minimum inhibitory concentration (MIC) for Enterococcus faecalis.
Enterococcus faecalis JCM5803 strain was cultured under shaking in a heart infusion broth medium (product of Becton, Dickinson Co.) at 37° C. overnight.
After completion of the culturing, the culture was diluted with the heart infusion broth medium so that the bacteria were 2×10^4 CFU/mL to 9×10^4 CFU/mL.
Each of the test samples (each of the above compounds, clarithromycin, and ampicillin) was prepared with the heart infusion broth medium to have a concentration of 256 mg/L. From this concentration, the test sample was 2-fold diluted serially in 11 steps to 0.125 mg/L.
The above-diluted culture was added at 50 μL/well to 50 μL/well of the heart infusion broth medium containing each of the test samples at the above concentrations, and was statically cultured at 37° C. for 18 hours.
as §16

[8] = test system: H. influenza ARD476 strain; assay: Measurement of MIC for H. influenza ARD476; type: cell-based; conditions: Haemophilus influenzae, ARD476STRAIN; HI medium, 18 hours, 37° C., 5% carbon dioxide; read-out: MIC H. influenzae ARD476
Description: as §11, §12, §13, §14, §15, §16

[9] = test system: H. pylori JCM12095 strain; assay: Measurement of MIC for H. pylori JCM12095; type: cell-based; conditions: Helicobacter pylori, JCM12095; HP medium, 144 hours, 37° C., microaerobic; read-out: MIC H. pylori JCM 12095
Description: as §6, §7, §8, §9, §10

[10] = test system: Staphylococcus aureus FDA209P strain; assay: Measurement of MIC for Staphylococcus aureus; type: cell-based; conditions: nutrient broth medium, 37° C. overnight, read-out: MIC Staphylococcus aureus FDA209P
Description: as §17, §18, §19, §20
as §10, with “nutrient broth” for “HP”, “cultured” for “cultured for 144 hours”, “overnight.” for “under microaerobic culture conditions (microaerobic conditions (N2:O2:CO2=85:5:10)).”

Row | SMILES | IC50 [1] [µg/mL] | IC50 [2] [µg/mL] | MTD at 2 weeks ([3]; MTD) [mg/kg] | MIC [4] [µg/mL] | MIC [5] [µg/mL] | MIC [6] [µg/mL] | MIC [7] [µg/mL] | MIC [8] [µg/mL] | MIC [9] [µg/mL] | MIC [10] [µg/mL] | MTD at 2 weeks ([3]; intravenous administration, ICR mice, observed for 2 weeks, one half of the dose with death or serious toxicity, read-out: MTD) [mg/kg]
1 | CCCCCCCCc1nc2ccccc2c(OCC(=O)OC)c1C [Structural Formula (1)] | 28.1 | 0.35 | ≥ 50 | – | – | – | – | – | – | – | –
2 | CC1(C)S[C@@H]2[C@H](NC(=O)[C@H](N)c3ccccc3)C(=O)N2[C@H]1C(=O)O [ABPC, ampicillin, reference compound] | – | – | – | 0.25 (≈ 0.715 µM) | 0.5 (≈ 1.43 µM) | 4 (≈ 11.4 µM) | 0.5 (≈ 1.43 µM) | 64 (≈ 183 µM) | 0.13 (≈ 0.372 µM) | < 0.125 | –
3 | CC[C@H]1OC(=O)[C@H](C)[C@@H](O[C@H]2C[C@@](C)(OC)[C@@H](O)[C@H](C)O2)[C@H](C)[C@@H](O[C@@H]2O[C@H](C)C[C@H](N(C)C)[C@H]2O)[C@](C)(OC)C[C@@H](C)C(=O)[C@H](C)[C@@H](O)[C@]1(C)O [Clarithromycin, clarithromycin, reference compound] | – | – | – | 0.008 (≈ 0.0107 µM) | 8 (≈ 10.7 µM) | 16 (≈ 21.4 µM) | 0.5 (≈ 0.668 µM) | 4 (≈ 5.35 µM) | 0.008 (≈ 0.0107 µM) | < 0.125 | –
4 | CCCCCCCCc1c(C)c(=O)c2ccccc2n1CNC(=O)SC [Structural Formula (10)] | 7.57 | 0.27 | – | – | – | – | – | – | – | – | ≥ 50
5 | CCCCCCCCc1c(C)c(=O)c2ccccc2n1C#N [Structural Formula (7)] | > 100 | 0.007 | 6.25 | – | – | – | – | – | – | – | –
6 | CCCCCCCCc1c(C)c(=O)c2ccccc2n1CC(=O)SC [Structural Formula (9)] | 5.84 | 1.4 | ≥ 50 | – | – | – | – | – | – | – | –
